Experiments:
[1] = molecular target: T1, α-adrenergic receptor subtype 2A (Homo sapiens, UniProt P08913); assay: Test against other receptors: α-adrenergic 2A; format: cell-based
T1 sequence (P08913 1-465): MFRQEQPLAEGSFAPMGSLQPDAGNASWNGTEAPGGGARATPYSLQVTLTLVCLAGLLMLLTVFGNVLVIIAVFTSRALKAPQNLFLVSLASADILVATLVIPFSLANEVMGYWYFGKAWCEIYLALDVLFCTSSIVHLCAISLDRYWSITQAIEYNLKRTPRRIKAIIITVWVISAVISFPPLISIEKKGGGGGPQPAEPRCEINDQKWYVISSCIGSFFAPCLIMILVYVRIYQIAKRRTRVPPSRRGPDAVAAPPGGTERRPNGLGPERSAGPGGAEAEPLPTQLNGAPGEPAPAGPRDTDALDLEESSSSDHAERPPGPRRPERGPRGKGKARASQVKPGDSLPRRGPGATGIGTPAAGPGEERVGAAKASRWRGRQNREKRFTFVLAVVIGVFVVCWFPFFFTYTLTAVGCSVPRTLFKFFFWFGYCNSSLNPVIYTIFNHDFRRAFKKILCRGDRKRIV

serotonin 5-HT2A = serotonin 5-HT2A (Homo sapiens, UniProt P28223); assay: Test against other receptors: serotonin 5-HT2A
[2] = molecular target: T2, α-adrenergic receptor subtype 2C (Homo sapiens, UniProt P18825); assay: Test against other receptors: α-adrenergic 2C; format: cell-based
T2 sequence (P18825 1-462): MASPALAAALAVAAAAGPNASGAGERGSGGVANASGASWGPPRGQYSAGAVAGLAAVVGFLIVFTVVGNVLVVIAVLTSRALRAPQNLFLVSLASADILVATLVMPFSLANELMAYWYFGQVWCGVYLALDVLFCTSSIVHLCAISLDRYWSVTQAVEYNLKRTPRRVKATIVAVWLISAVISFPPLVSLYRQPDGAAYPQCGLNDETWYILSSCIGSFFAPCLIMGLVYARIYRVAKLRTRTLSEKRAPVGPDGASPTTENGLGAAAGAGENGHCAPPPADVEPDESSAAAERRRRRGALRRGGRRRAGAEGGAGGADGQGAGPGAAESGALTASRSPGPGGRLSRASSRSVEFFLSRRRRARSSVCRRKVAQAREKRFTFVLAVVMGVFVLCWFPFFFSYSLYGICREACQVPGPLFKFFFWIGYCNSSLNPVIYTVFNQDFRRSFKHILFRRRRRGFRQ

Chain of serotonin 5-HT2A (P28223 whole entry): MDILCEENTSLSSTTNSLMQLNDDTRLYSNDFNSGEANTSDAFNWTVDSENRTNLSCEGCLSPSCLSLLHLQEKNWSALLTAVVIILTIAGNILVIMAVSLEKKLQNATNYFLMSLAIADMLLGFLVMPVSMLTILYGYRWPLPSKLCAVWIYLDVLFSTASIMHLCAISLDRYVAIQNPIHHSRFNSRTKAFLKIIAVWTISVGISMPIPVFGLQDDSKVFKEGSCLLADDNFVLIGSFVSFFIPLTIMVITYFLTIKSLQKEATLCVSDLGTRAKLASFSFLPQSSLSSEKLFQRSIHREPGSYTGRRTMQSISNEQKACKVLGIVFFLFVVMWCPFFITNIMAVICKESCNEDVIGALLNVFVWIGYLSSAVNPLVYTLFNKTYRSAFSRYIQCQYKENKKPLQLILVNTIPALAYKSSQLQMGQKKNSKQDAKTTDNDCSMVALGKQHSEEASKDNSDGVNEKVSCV

CCCCC1CCN(CCCC(=O)c2ccccc2C)CC1 [Compound A, 4-n-Butyl-1-[4-(2-methylphenyl)-4-oxo-1-butyl]piperidine]
agonist activity [1]: no significant activity | inhibition of receptor responses (antagonist experiments) [1]: did not inhibit | agonist activity (serotonin 5-HT2A): no significant activity | inhibition of receptor responses (antagonist experiments) (serotonin 5-HT2A): did not inhibit | agonist activity [2]: no significant activity | inhibition of receptor responses (antagonist experiments) [2]: did not inhibit
